Experimental data published in patent US9902740B2, “Macrocyclic benzodiazepine dimers, conjugates thereof, preparation and uses” (BRISTOL-MYERS SQUIBB COMPANY, priority 2015, dated 2018).
Where two headings read alike, the source gives them in different places.

Assays:
Format in all cases: cell-based
[1] = system: OVCAR3 human ovarian cancer cell line; assay: Cytotoxic activity of dimers against OVCAR3 cells; settings: for EC50: Table 5 comparative activities, OVCAR3
Description: (§1) H226 is a human lung cancer cell line. N87 is a human gastric cancer cell line. OVCAR3 is a human ovarian cancer cell line. HCT116 is a human colon cancer cell line. HCT116/VM46 is a human colon cancer cell line that is multi-drug and paclitaxel resistant.

[2] = system: HCT116/VM46 human colon cancer cell line (multi-drug and paclitaxel resistant); assay: Cytotoxic activity of dimers against HCT116/VM46 cells
Description: as §1

[3] = system: N87 human gastric cancer cell line; assay: Cytotoxic activity of dimers against N87 cells; settings: for IC50: read-out: Cell Line (IC50, nM) N87; for EC50: Table 5 comparative activities, N87
Description: as §1

[4] = system: H226 human lung cancer cell line; assay: Cytotoxic activity of dimers against H226 cells; settings: for EC50: Table 5 comparative activities, H226
Description: as §1

[5] = system: HCT116 human colon cancer cell line; assay: Cytotoxic activity of dimers against HCT116 cells
Description: as §1

[6] = Table 4, OVCAR3 human ovarian cancer cell line, read-out: Cell Line (IC50, nM) OVCAR3
[7] = Table 4, N87 human gastric cancer cell line
[8] = Table 4, H226 human lung cancer cell line, read-out: Cell Line (IC50, nM) H226
[9] = Homo sapiens, OVCAR-3, read-out: Cell Line (IC50, nM) OVCAR3
[10] = Homo sapiens, HCT-116/VM46, Table 4
[11] = Homo sapiens, NCI-H226, read-out: Cell Line (IC50, nM) H226

Row | Structure (SMILES) | IC50 [1, 6] [nM] | IC50 ([2]; Table 4) [nM] | IC50 [3, 7] [nM] | IC50 [4, 8] [nM] | EC50 [1] [nM] | EC50 [3] [nM] | EC50 [4] [nM] | other results
1 | C=C1C[C@H]2C=Nc3cc4c(cc3C(=O)N2C1)OCCCCCCCCOc1cc2c(cc1OCCCO4)N=C[C@@H]1Cc3ccc(N)cc3CN1C2=O [IId-2] | 0.71 | 2.8 | 1.1 | 0.56 |  |  |  | IC50 ([5]; Table 4): 0.11 nM
2 | CN1CCN(c2ccc(C3=CN4C(=O)c5cc6c(cc5N=C[C@@H]4C3)OCCCOc3cc4c(cc3OCCCCCCCCO6)C(=O)N3C=C(c5ccc(N6CCNCC6)cc5)C[C@H]3C=N4)cc2)CC1 [IIc-9] |  |  |  |  |  |  |  | IC50 [1, 9]: 1 nM; IC50 [2, 10]: 0.16 nM; IC50 ([3]; Homo sapiens): 0.68 nM; IC50 [4, 11]: 0.33 nM; IC50 ([5]; HCT-116, Table 4): 0.063 nM
3 | CN1CCN(c2ccc(C3=CN4C(=O)c5cc6c(cc5NC[C@@H]4C3)OCCCOc3cc4c(cc3OCCCCCCCCO6)C(=O)N3C=C(c5ccc(N6CCN(C)CC6)cc5)C[C@H]3CN4)cc2)CC1 [IId-4] | 20 | 4.8 | 12 | 8.1 |  |  |  | IC50 ([5]; Table 4): 2 nM
4 | O=C1c2cc3c(cc2N=C[C@@H]2Cc4ccccc4CN12)OCCCOc1cc2c(cc1OCCOCCOCCO3)C(=O)N1Cc3ccccc3C[C@H]1C=N2 [IIb-4] | 0.2 | 2 | 0.14 | 0.15 |  |  |  | IC50 ([5]; Table 4): 0.068 nM
5 | CN1CCN(c2ccc(C3=CN4C(=O)c5cc6c(cc5NC[C@@H]4C3)OCCCOc3cc4c(cc3OCCCCCCCCO6)C(=O)N3C=C(c5ccc(N6CCN(C)CC6)cc5)C[C@H]3C=N4)cc2)CC1 [IId-3] |  |  |  |  |  |  |  | IC50 [1, 9]: 0.26 nM; IC50 [2, 10]: 0.033 nM; IC50 ([3]; Homo sapiens): 0.072 nM; IC50 [4, 11]: 0.035 nM; IC50 ([5]; HCT-116, Table 4): 0.045 nM
6 | O=C1c2cc3c(cc2N=C[C@@H]2CCCN12)OCCCOc1cc2c(cc1OCCCCCCCCCCCO3)C(=O)N1CCC[C@H]1C=N2 [IIa-5] | 78 |  | 150 | 69 | 78 | 150 | 69 | 
7 | COc1ccc(C2=CN3C(=O)c4cc5c(cc4N=C[C@@H]3C2)OCCCOc2cc3c(cc2OCCCCCCCCCCCCO5)C(=O)N2C=C(c4ccc(OC)cc4)C[C@H]2C=N3)cc1 [IIc-2] | > 250 | > 250 | 230 | 220 |  |  |  | IC50 ([5]; Table 4): 48 nM
8 | C=C1C[C@H]2C=Nc3cc4c(cc3C(=O)N2C1)OCCCCNCCCCOc1cc2c(cc1OCCCO4)N=C[C@@H]1CC(=C)CN1C2=O [IIa-14] | 50 | 170 | 23 | 21 |  |  |  | IC50 ([5]; Table 4): 38 nM
9 | O=C1c2cc3c(cc2N=C[C@@H]2CCCN12)OCCCOc1cc2c(cc1OCCCCCCCCCO3)C(=O)N1CCC[C@H]1C=N2 [IIa-3] | 7.3 |  | 8.3 | 8.7 | 7.3 | 8.3 | 8.7 | 
10 | Nc1ccc2c(c1)CN1C(=O)c3cc4c(cc3N=C[C@@H]1C2)OCCCOc1cc2c(cc1OCCCCCCCCO4)C(=O)N1Cc3ccccc3C[C@H]1C=N2 [IIb-6] |  |  |  |  |  |  |  | IC50 [1, 9]: 0.21 nM; IC50 [2, 10]: 0.66 nM; IC50 ([3]; Homo sapiens): 0.25 nM; IC50 [4, 11]: 0.21 nM; IC50 ([5]; HCT-116, Table 4): 0.016 nM
11 | O=C1c2cc3c(cc2N=C[C@@H]2CCCN12)OCCCOc1cc2c(cc1OCCCC/C=C/CCCCO3)C(=O)N1CCC[C@H]1C=N2 [IIa-9] | 12 |  | 13 | 12 | 12 | 13 | 12 | 
12 | C=C1C[C@H]2C=Nc3cc4c(cc3C(=O)N2C1)OCCOCCOCCOc1cc2c(cc1OCCCO4)N=C[C@@H]1CC(=C)CN1C2=O [IIa-13] | 20 | 85 | 40 | 29 |  |  |  | IC50 ([5]; Table 4): 32 nM
13 | CN1CCN(c2ccc(C3=CN4C(=O)c5cc6c(cc5N=C[C@@H]4C3)OCCCOc3cc4c(cc3OCCCCCCCCO6)C(=O)N3C=C(c5ccc(N)cc5)C[C@H]3C=N4)cc2)CC1 [IIc-10] | 0.36 | 0.071 | 0.36 | 0.044 |  |  |  | IC50 ([5]; Table 4): 0.022 nM
14 | O=C1c2cc3c(cc2N=C[C@@H]2CCCN12)OCCCOc1cc2c(cc1OCCCCCCCCCCCCO3)C(=O)N1CCC[C@H]1C=N2 [IIa-6] | 140 |  | 310 | 110 | 140 | 310 | 110 | 
15 | COc1cc2c(cc1OCCCOc1cc3c(cc1OC)C(=O)N1CCC[C@H]1C=N3)N=C[C@@H]1CCCN1C2=O [Dimer A-4, reference compound] |  |  |  |  |  |  |  | EC50 ([1]; Homo sapiens, OVCAR-3): 56 nM; EC50 ([3]; Homo sapiens): 63 nM; EC50 ([4]; Homo sapiens, NCI-H226): 70 nM
16 | O=C1c2cc3c(cc2N=C[C@@H]2CCCN12)OCCCOc1cc2c(cc1OCCCCCCCCCCO3)C(=O)N1CCC[C@H]1C=N2 [IIa-4] | 20 |  | 22 | 12 | 20 | 22 | 12 | 
17 | O=C1c2cc3c(cc2N=C[C@@H]2CC(c4ccccc4)=CN12)OCCCOc1cc2c(cc1OCCCCCCCCCCO3)C(=O)N1C=C(c3ccccc3)C[C@H]1C=N2 [IIc-1] | 7.6 | 30 | 12 | 12 |  |  |  | 
18 | C=C1C[C@H]2C=Nc3cc4c(cc3C(=O)N2C1)OCCCC/C=C/CCCCOc1cc2c(cc1OCCCO4)N=C[C@@H]1CC(=C)CN1C2=O [IIa-10] | 0.47 | 11 | 2.3 | 2 |  |  |  | 
19 | O=C1c2cc3c(cc2N=C[C@@H]2CCCN12)OCCCOc1cc2c(cc1OCCCCCCCO3)C(=O)N1CCC[C@H]1C=N2 [IIa-1] | 3.4 | 74 | 4.6 | 8.1 | 3.4 | 4.6 | 8.1 | 
20 | O=C1c2cc3c(cc2N=C[C@@H]2Cc4ccccc4CN12)OCCCOc1cc2c(cc1OCCCCCCCCCCO3)C(=O)N1Cc3ccccc3C[C@H]1C=N2 [IIb-2] | 1.3 | 17 | 2.5 | 3 |  |  |  | 
21 | O=C1c2cc3c(cc2N=C[C@@H]2CCCN12)OCCCCCOc1cc2c(cc1OCCCCCCCCCCCCO3)C(=O)N1CCC[C@H]1C=N2 [IIa-8] | 9.9 |  | 15 | 10 | 9.9 | 15 | 10 | 
22 | O=C1c2cc3c(cc2N=C[C@@H]2CCCN12)OCCCCCOc1cc2c(cc1OCCCCCCCCCCCO3)C(=O)N1CCC[C@H]1C=N2 [IIa-7] | 14 |  | 87 | 12 | 14 | 87 | 12 | 
23 | C=C1C[C@H]2C=Nc3cc4c(cc3C(=O)N2C1)OCCCCCCCCOc1cc2c(cc1OCCCO4)N=C[C@@H]1CC(=C)CN1C2=O [IIa-12] | 0.52 | 4.8 | 0.89 | 0.32 |  |  |  | 
24 | O=C1c2cc3c(cc2N=C[C@@H]2Cc4ccccc4N12)OCCCOc1cc2c(cc1OCCCCCCCCCCO3)C(=O)N1c3ccccc3C[C@H]1C=N2 [IIb-3] | 3.5 | 13 | 11 | 5.9 |  |  |  | 
25 | O=C1c2cc3c(cc2N=C[C@@H]2Cc4ccccc4CN12)OCCCOc1cc2c(cc1OCCCCCCCCO3)C(=O)N1Cc3ccccc3C[C@H]1C=N2 [IIb-1] | 0.33 | 1.3 | 0.53 | 0.22 |  |  |  | 
26 | O=C1c2cc3c(cc2N=C[C@@H]2CCCN12)OCCCOc1cc2c(cc1OCCCCCCCCO3)C(=O)N1CCC[C@H]1C=N2 [IIa-2] | 1.2 |  | 2.7 | 1.6 | 1.2 | 2.7 | 1.6 | 
